The source of these data is a melting point compilation (Tetko et al.; mined from patent text by program, amines drawn as free bases though some values may be those of a salt).

Turning to `O=S(=O)(NCCCN1c2ccccc2CCc2ccc(Cl)cc21)c1ccc(OC(F)(F)F)cc1`, the melting point (in general, the temperature of the solid-liquid transition) is 119 to 121 °C. `COc1cc(Cc2cnc(NC(C)=Nc3ccccc3)nc2N)cc(OC)c1OC` returned a melting point of 189 °C. `COC(=O)c1ccc(OCC(C)NCC(O)c2ccc(O)c(CO)c2)cc1` (stereo not drawn) registered a melting point of 60 to 68 °C.

With `CCSc1cc(-c2ccc(Cl)cc2Cl)ccc1C#N`, the melting point lay within 89 to 92 °C. `O=C1C(=O)c2ccccc2C2=C1SCC1(CCN(C(=O)c3cccc(C(F)(F)F)c3)CC1)O2`: the melting point fell in the range of 165 to 166 °C.

`O=C(O)CCc1nc(C(=O)O)ccc1O` came in with a melting point of 210 to 212 °C. `Cc1cc(-c2[nH]c3ccc(C#N)cc3c2C)cc(C)c1O`: the melting point is 185 to 186 °C. In turn, `O=C(COc1ccc(-c2ccccc2-c2nn[nH]n2)cc1)C1CC1` had a melting point of 184 to 185 °C. In turn, `Cc1ccc(-c2cccc(C(N)=O)c2)cc1` gave a melting point of 200 to 205 °C.

`CN(C)NC(=O)c1cc(S(C)(=O)=O)c(Cl)cc1NCc1ccco1` displayed a melting point of 90 to 104 °C. `COc1cccc(C(C)(C)C(=O)O)c1` showed a melting point of 46 to 47 °C. Next, `O=C(O)c1cccc(C(=O)O)c1[N+](=O)[O-]`: 100 to 101 °C.

As to `CCOc1ccc(C2=NN(C(=O)c3cccnc3)CC2)cc1`, the melting point lay within 124 to 125 °C.

Turning to `O=C(C1=C(O)CCS1)c1nnn(Cc2ccccc2)c1Cl`, the melting point lay in the range of 118 to 120 °C. Consider `CC(C)(C)OC(=O)NC1CCCCc2cc(OCC3CCCCC3)c(C(N)=O)cc21` (stereo not drawn), for which the melting point was in the range of 193 to 194 °C. Compound `COC(=O)c1cc(-c2cccc(C(F)(F)F)c2)c[nH]c1=O` displayed a melting point of 195 to 201 °C.

For the compound `C#CCCCCCCCCCCCCCCCCCCCC(=O)OC(C)(C)C`, the melting point was in the range of 44 to 45 °C.

As for `COc1cc(/C=C/C=O)c([N+](=O)[O-])cc1OC`, the melting point lay within 103 to 105 °C. Compound `O=[N+]([O-])c1c(Cl)cc(Cl)cc1-c1n[nH]cc1Cl` returned a melting point of 173 °C. On to `CC(C)(C)c1cc(P(c2ccccc2)c2ccccc2)cc(C(C)(C)C)c1O`, for which the melting point lay within 92 to 93 °C. In turn, `CC(C)c1cccc(C(C)C)c1NC(=O)CN1CC2(CCCCC2)N(c2ccccc2)CC1=O` gave a melting point of 158 to 160 °C. `CCCNC(=O)C1(CC=Cc2ccc([N+](=O)[O-])cc2)c2ccccc2-c2ccccc21` returned a melting point of 143 to 146 °C. Take `O=[N+]([O-])c1cccc(OCCn2ccnc2)c1`: the melting point lay within 52.5 to 55.5 °C.

For the compound `CCOC(=O)c1nc(N)sc1-c1cn2ccc(C)cc2n1`, the melting point lay in the range of 278 to 280 °C. For `CN(C)C1(c2ccccc2)CCC2(OCCc3c2[nH]c2ccccc32)C(CC#N)C1` (stereo not drawn), the melting point was in the range of 260 to 267 °C.

For `N#Cc1nn(-c2c(Cl)cc(C(F)(F)F)cc2Cl)cc1-c1ccccc1C(F)(F)F`, the melting point was 142 to 143 °C.

The compound `CCC(=O)C(CCCCCCCCc1ccc(O)cc1)C(=O)CC` showed a melting point of 164 to 165 °C. In turn, `CCNc1nc(C)c(-c2ccnc(Nc3ccc(N4CCOCC4)c(OC)c3)n2)s1` returned a melting point of 224 to 226 °C. Regarding `CC(C)(C)OC(=O)N1CCCC(C2=C(C#N)C(c3cccc(C#N)c3Br)c3c[nH]nc3N2)C1` (stereo not drawn), the melting point was determined as 238 °C. The same measure for `CC(=O)N1C(C)(C)CC(Oc2nc(Cl)nc(N3C(C)(C)CCCC3(C)C)n2)CC1(C)C`: 114 to 116 °C; for `Oc1cccc(-c2ccncc2)c1`: above 300 °C; for `CC(C)(C)C(=O)COc1ccc(Cl)cc1`: 58 °C. Take `C/C(C=O)=C\COc1cccc2ccccc12`: the melting point was 81.5 to 82.5 °C. In the case of `COC(=O)c1c2nc3ccccc3c-2[nH]c2ccccc12`, the melting point lay in the range of 152 to 154 °C. For `Cn1ncc(/C=C/C(=O)Nc2ccc(CCc3nnco3)cc2)c1-c1ccc(F)cc1`, the melting point lay in the range of 177 to 178 °C. For `Clc1cccc2c1Sc1ccccc1N2C1=CCCN1C1=NCCC1`, the melting point was in the range of 195 to 197 °C. The same measure for `CC1(C)CC(=O)C(SCc2ccc(F)cc2)=C(O)C1`: 112 °C; for `CC1SC(N2N=C(c3ccc([N+](=O)[O-])cc3)c3cc4c(cc3CC2C)OCO4)=NC1=O` (stereo not drawn): 213 to 214 °C. `CN(c1ccc2ccccc2c1)S(=O)(=O)C(Cc1ccccc1)C(=O)NC(Cc1ccc(C#N)cc1)C(=O)N1CCCC1` (stereo not drawn) yielded a melting point of 186 °C. `Clc1cccc2c1C1=NCCN1C1C(c3ccccc3)CCN21` (stereo not drawn): the melting point is 249 to 250 °C.

Turning to `Cc1c(C#N)c(SC(F)(F)F)cn1-c1c(Cl)cc(C(F)(F)F)cc1Cl`, the melting point turned out to be 98.5 °C. Next, `O=[N+]([O-])c1c(Cl)cccc1-c1nn(CO)cc1Cl`: 146 °C; `O=C(NC(Cc1ccccc1)c1ncc(C(F)(F)F)cc1Cl)c1c(Cl)cccc1Cl` (stereo not drawn): 164 to 168 °C; `COC(=O)c1cc(N)c(Oc2ccccc2)c(N2CCCC2)c1`: 154 to 156 °C. In turn, `O=C(C1=COCCOCCOCCOCCOCCO1)c1cccnc1` returned a melting point of 98 to 100 °C. Compound `Cn1nnnc1-c1cnc2cc(Cl)c(F)cc2c1O` returned a melting point of 326 to 330 °C. The same measure for `CNC(=O)c1cc(Br)cc(-c2ccccc2)c1`: 132 °C. For `O=CN1CCC(c2ccccc2Cc2ccccc2)C1` (stereo not drawn), the melting point is 70 to 71 °C. For `CCC(=Cc1ccc(N(C)C)cc1Cl)[N+](=O)[O-]`, the melting point lay within 90 to 91 °C. Next, `CN(CC=C(F)C(F)(F)C(F)(F)C(F)(F)F)CCCCCC1Cc2cc(O)ccc2C2C(F)CC3(C)C(O)CCC3C12` (stereo not drawn): 130 °C; `CSc1cnc2c(c1)CCC(c1ccc(Cl)c(Cl)c1)O2` (stereo not drawn): 109 to 111 °C. Consider `COc1ccc(S(=O)(=O)C2(CCCC#Cc3ccc(C(=O)O)cc3C)SC(=O)NC2=O)cc1` (stereo not drawn), for which the melting point lay in the range of 182 to 184 °C. The same measure for `CCOC(=O)Nc1cccc2c1CN(C)CC2c1ccccc1` (stereo not drawn): 174 °C; for `COc1ccc(C(CS(C)(=O)=O)N2C(=O)c3cccc(NC(C)=O)c3C2=O)cc1OCC1CC1` (stereo not drawn): 102 to 104 °C; for `CCn1cc(C(=O)OCC(=O)OCC2CCCCC2)c(=O)c2ccc(C)nc21`: 130 to 132 °C.

For the compound `CCCOc1ccc(S)cc1C(N)=O`, the melting point was 108 to 111 °C. Next, `CCC(Br)C(=O)c1ccc(OC)c(OC(F)F)c1` (stereo not drawn): 105 °C; `Cc1cccc(NC(=O)c2cn(-c3ccccc3)c3ccccc3c2=O)n1`: 273 to 274 °C.

Compound `CCCn1cc(C(=O)c2cccc3ccccc23)cc1C(=O)O` gave a melting point of 145 °C. In turn, `CCOC(=O)c1c(NC(=O)NCC(=O)OC)sc(C)c1C` returned a melting point of 151 °C. Consider `Cc1ccc2c(c1)CSc1nnc(C)n1-2`, for which the melting point worked out at 168 °C.

Compound `CCCCCCCSc1nn2c(=O)c(C)c(F)nc2s1` displayed a melting point of 78 to 91 °C. Compound `O=Cc1cccc(OCc2ccc3ccccc3c2)c1` came in with a melting point of 105 to 106 °C. In turn, `NC(=O)/C=C1/c2cc(F)ccc2C(O)C1O` (stereo not drawn) displayed a melting point of 212 to 220 °C.

As for `Cc1cccc(-c2n[nH]cc2-c2ccc(F)c(-c3c[nH]c(CC(C)(C)O)n3)c2)n1`, the melting point was 136 to 140 °C. Next, `Cc1cc(Cn2c(O)nc3c(N)nc(C)c(C)c32)on1`: above 300 °C; `CC(C)CC(C(=O)OCc1ccccc1)N1C(=O)C2(CCCN2C(=O)OC(C)(C)C)CC1O` (mixture of isomers): 134 to 135 °C. On to `CN1Cc2c(C#N)ncn2-c2ccccc2C1=O`, for which the melting point is 184 to 186 °C. In the case of `Nc1nc(Oc2ccccc2)c2nc[nH]c2n1`, the melting point was found to be 228 °C. The same measure for `N#Cc1c(-c2ccc(Cl)cc2)[nH]c(Cl)c1Cl`: 259 to 261 °C. Next, `NS(=O)(=O)c1ccc(NCC(=O)Nc2ccccc2)cc1`: 257 to 258 °C; `CC(C)c1ccc(CCC(O)CC2CCCCC2)cc1NC(=O)CC1c2ccccc2Oc2ccccc21` (stereo not drawn): 144 to 145 °C.

Take `COc1cc(OC)c([N+](=O)[O-])c(OC)c1NC=O`: the melting point was 98 °C. Compound `O=[N+]([O-])c1cc2c(Cl)ncnc2cc1F` yielded a melting point of 116 to 118 °C. Consider `CCOC(=O)c1ccc(O)c(C#N)c1`, for which the melting point fell in the range of 192 to 193 °C. Turning to `Cc1cc([N+](=O)[O-])cnc1CCCC#N`, the melting point lay in the range of 51.5 to 53 °C. As for `CCCCCCCC/C=C\CCCCCCCC(=O)N[C@H]1CCCNC(=O)C1`, the melting point was 66 to 67 °C.

As for `CCOC(=O)COc1nnc(-c2ccc3c(c2)CCO3)o1`, the melting point is 103 to 104 °C. In turn, `CC(=O)OCc1ccc(-c2ccccc2-c2nnnn2C(c2ccccc2)(c2ccccc2)c2ccccc2)cc1` returned a melting point of 117 to 119 °C.

Compound `COc1ccc(Cc2nc(C)c[nH]2)cc1` had a melting point of 108 to 109 °C. In turn, `NNC(=O)c1ccccc1-c1ccc([N+](=O)[O-])cc1` gave a melting point of 194 to 196 °C. The compound `Cc1cc(-c2ccc(OC3SCC(O)C(O)C3O)cn2)ccn1` (stereo not drawn) had a melting point of 214 °C. For the compound `CCCCCCCOc1ccc(COc2ccc3c(c2)CC(CC(=O)O)C3OC)cc1` (stereo not drawn), the melting point is 80 to 82 °C. In turn, `C(=Cc1cnc2[nH]c3ccccc3c2c1)c1ccccc1` had a melting point above 220 °C. `CCN(CCCc1c[nH]c2c(Cl)cccc12)C1COc2c(F)ccc(C(N)=O)c2C1` (stereo not drawn) registered a melting point of 146 to 152 °C. Compound `CCCCS(=O)(=O)c1c(Cl)nc(Cl)nc1Cl` had a melting point of 71 to 72 °C. Consider `CCOc1cc(C(CC(=O)OC)N2C(=O)c3ccccc3C2=O)ccc1OC` (stereo not drawn), for which the melting point was in the range of 86 to 87 °C. `O=C1C(c2ccccc2)=C(c2ccccc2)C(=O)N1CCc1ccccc1F` gave a melting point of 111 to 112 °C. The compound `O=[N+]([O-])c1ccnc(Nc2nccs2)c1` registered a melting point of 230 to 233 °C. `CCCCCCNC1=NS(=O)(=O)c2cc(Cl)c(Cl)cc2N1` showed a melting point of 282 to 286 °C.

The compound `CNC(=O)CNC(=O)c1cncc(F)c1` displayed a melting point of 201 to 202 °C. `O=C1c2ccccc2OCC1C(=O)C(F)(F)F` (stereo not drawn) showed a melting point of 81 to 83 °C.

Turning to `OCc1cc(N2CCCC2)ncn1`, the melting point is 136 to 139 °C.
